From patent publication US20050137251A1, “Dexanabinol and dexanabinol analogs regulate inflammation related genes” (priority 2002, published 2005)

Experiments:
IL-6 gene expression = IL-6 gene expression in MCAo mice brains; conditions: 5 mg/kg i.v., 18 hrs following MCAo
MCP-1 gene expression = MCP-1 gene expression in MCAo mice brains; conditions: 5 mg/kg i.v., 18 hours of MCAo
[1] = tested on: MPTP model of neurodegeneration; assay: MPTP long-term model: rotarod functional outcome and mortality; assay type: in vivo, mice
Experimental: The mice (C57/BL male mice, average weight 30 g, Harlan, Israel) were administered i.p. with MPTP (Sigma, USA) (40 mg/kg, 5 ml/kg) in saline (Teva Medical, Israel) at 2 weeks interval for four times. The test compounds and controls were injected i.p. once just before the first MPTP administration at a volume dose of 5 ml/kg. Dexanabinol was tested at 20 mg/kg and PRS-211,220 was tested at 5 mg/kg. Each treatment group was composed of at least fourteen animals.
Seven days following each MPTP injection, the animals were submitted to a functional test using the rotarod apparatus as described by Rozas et al. (Rozas G. et al., J. of Neuroscience Methods 83: 165-75, 1998). The performance of the animals in the rotarod system, which measures overall locomotor ability, reflects their ability to achieve functions generally affected in PD. The animals were trained for 4 days before beginning the experiment. Their task was to stay on the accelerating rod without falling for 12 minutes (3 minutes at each speed). The tested speeds were: 15, 19, 23 and 27 rpm. Animal performance on the rod was scored as follows: each animal could obtain a maximum of 3 points (1 for each minute) for full walking on the rod at each speed. […]
Another parameter that was measured in this experiment is mortality, which was relatively high in this model.

IL-2 secretion = IL-2 secretion (ELISA) in activated Jurkat T cells; assay type: cell-based; conditions: Homo sapiens, supernatant 24 hours after activation, read-out: IC50 for inhibition of IL-2 secretion
Text: The technique used to quantify the amount of a given protein in a liquid sample, either tissue culture supernatant or body fluid, is based on Enzyme Linked ImmunoSorbent Assay (ELISA) methodology. Either commercially available or established in house, the assay is based on the capture of the protein of interest by specific antibodies bound to the bottom of an ELISA plate well. Unbound material is washed away, the captured protein is then exposed to a secondary antibody generally labeled with horseradish peroxidase (HRP) or alkaline phosphatase (ALP). Again the unbound material is washed away, the samples are then incubated with the appropriate substrate yielding a colorimetric reaction. The reaction is stopped and reading is carried out in a spectrophotometer at the appropriate wavelength. […] Concentration of the protein in the sample is calculated from the standard curve. […]
In parallel, the supernatant from each well was collected 24 hours after the activation and analyzed for the presence of secreted IL-2 by ELISA. […] The absorbance measured at 450 nm is proportional to the concentration of IL-2 in the sample or standard. A standard curve is obtained by plotting the concentrations of recombinant IL-2 standards versus their absorbances. The IL-2 concentrations in experimental samples are then determined using the standard curve.

IL-2 gene expression = IL-2 gene expression in Jurkat T cells activated with PMA and calcium ionophore; assay type: cell-based, human; conditions: 10 μM, RNA 6 hrs after activation
Experimental: The human acute lymphoma T cell line Jurkat (ATCC # TIB 152) was used to test the possible immunosuppressive effect of dexanabinol and its analogs on T cell activation. […] 2×10^6 cells in one milliliter were stimulated using 10 ng/ml of PMA (Sigma) and 1 μM A23187 calcium ionophore (Sigma). […] The controls and test compounds were added at indicated concentrations one hour before stimulation.
The results are plotted after normalization to cyclophilin A expression.

[2] = tested on: LoVo colorectal cancer cells; assay: Tumor growth of in vivo implanted LoVo colorectal cancer cells; parameters: species or system mice; conditions: end of 8 weeks treatment
Experimental: Once we have shown that dexanabinol and its analogs were inhibitors of tumor cell proliferation in vitro, we wished to test if our compounds were as efficient in vivo. For this purpose the tumor cells LoVo (originating from a colorectal tumor; ATCC # CCL-229) were grown in DMEM containing 4.5 g/L glucose, 2 mM Glutamine, 1% Pen/Strep and 10% heat inactivated fetal calf serum. The cells were harvested using Trypsin-EDTA, the detached cells were rinsed in PBS, and counted. Predetermined amounts (1×10^6 cells in constant volume of […]) were injected s.c. above the right femoral joint in nude CD-1 male mice (average weight 20-25 gr, Harlan, Israel). Each treatment group was composed of at least 7 animals. Each animal was clinically monitored daily. The growth of the tumor was also monitored during the daily visits but actual measurements were recorded once a week. When tumors reach the appropriate size, animals are treated with either vehicle, 5 ml/kg/day, or with our test compounds, in the range of 2.5 to 10 mg/kg/day.
Thirty-six out of the 40 implanted mice developed a visible tumor within 5 to 6 weeks from tumor implantation. All animals were treated first on the 36th-42nd day of tumor implantation and the treatment lasted 8 weeks. One animal died in each treatment group between the 5th and the 7th week of treatment. The results are expressed as percent of tumor growth at the various days of the treatment as compared to baseline day 1. The results are depicted in FIG. 7 where we can observe that the efficacy of dexanabinol is inversely proportional to its dose in the range tested. 2.5 mg/kg (▪) seems more efficient than 5 mg/kg (▴), itself better than 10 mg/kg (x), which has very little effect, if at all, as compared to vehicle (--♦--). By the end of the treatment, 2.5 mg/kg dexanabinol reduced the tumor growth by 89%, 5 mg/kg by 61% and 10 mg/kg by 21%.

CCCCCCC(C)(C)c1cc(O)c2c(c1)OC(C)(C)[C@H]1CC=C(CO)C[C@H]21 [dexanabinol, 1,1-dimethylheptyl-(3S,4S)-7-hydroxy-Δ^6-tetrahydrocannabinol]
Modulation of IL-6 gene expression (IL-6 gene expression): not modulated | Reduction of MCP-1 gene expression increase vs vehicle (MCP-1 gene expression): 41% | Rotarod functional outcome vs vehicle ([1]; 20 mg/kg i.p., fourth session): positive trend | Mortality ([1]; 20 mg/kg, MPTP only 69%): 11% | IC50 (IL-2 secretion): 8 µM | Reduction of IL-2 fold of activation (IL-2 gene expression): 41% | Reduction of tumor growth ([2]; 2.5 mg/kg/day): 89% | Reduction of tumor growth ([2]; 5 mg/kg/day): 61% | Reduction of tumor growth ([2]; 10 mg/kg/day): 21%
